# Tests used:
# cowpea plants [1] = test: Recovery of virus particles from mouse tissues, infectivity to cowpea; parameters: species or system Vigna unguiculata
# Experimental: Recovery of virus particles from mouse tissues. Four mice were orally inoculated with 150 μg/mouse of CPMV and 24 hours later, the mice were euthanized and the liver, spleen, and kidney tissues were extracted and pooled. Following homogenization of pooled tissue samples in PBS, the homogenates were centrifuged at 10,000 g for 10 minutes at 4° C., and the cleared tissue supernatants were removed to flat-bottom 50-ml centrifuge tubes, each containing a magnetic flea. Polyethylene glycol 8000 was added to each supernatant to a final concentration of 8% and the mixture was stirred for 30 minutes at 4° C. to precipitate any virus present. The resulting cloudy mixture was centrifuged at 6,000 rpm in a Sorvall RC5C centrifuge for 15 minutes and the pellet was resuspended in 50-500 μl of 0.1 M phosphate buffer (pH 7.0), depending on pellet size. For each tissue homogenate a 7-day-old cowpea plant was dusted with carborundum and the resuspended pellet from each tissue was rubbed onto a single primary leaf. Five to seven days later, the primary and secondary leaves were harvested and a circle of tissue weighing 70 mg was excised from each leaf. RNA was extracted using a Qiagen RNeasy Plant Mini Kit (Qiagen Research, Maryland, USA) and RT-PCR was conducted as described above. PCR products were electrophoresed on a 2% Seakem LE agarose gel. The PCR products were purified from the gel using a PCR purification kit (Qiagen) and sequenced (Retrogen) to confirm that they were CPMV specific. Southern hybridization of the products with a CPMV-specific probe was also performed using ^32P end-labeled oligonucleotides (Amersham Biosciences). PCR products were transfered to Hybond-N+ membrane (Amersham Biosciences) using standard techniques. Hybridization conditions were 3 hours at 55° C. and wash conditions were in 6×SSC/0.5% SDS and were performed twice for five minutes at room temperature and twice for 5 minutes at 50° C.
# cowpea plants [2] = test: Infectivity of CPMV following incubation with blood plasma or serum; parameters: species or system Vigna unguiculata; conditions: day 7
# Experimental: Infectivity of CPMV following incubation with blood. Whole blood samples were obtained from mice following cardiac puncture either with or without heparin. Samples were incubated at 4° C. overnight and then spun at 15,000 rpm for 10 minutes. Blood plasma or serum were recovered and incubated with CPMV (15 ug) in a one to one (v/v) ratio at 37° C. for 30 minutes while a control CPMV sample was incubated with PBS. Primary leaves from 7-day-old cowpea plants were then bruised with carborundum and inoculated with samples (at a concentration of 3 μg CPMV per leaf, or 300-fold more virus than is required to produce lesions) and observed daily for infection-induced mosaic symptoms.
# LCMV = conditions: mouse, in vivo
# KDR receptor (VEGFR2) = KDR receptor (VEGFR2) (Homo sapiens, UniProt P35968); test: Binding assay using ELISA
# Sequence of KDR receptor (VEGFR2) (P35968 20-1356): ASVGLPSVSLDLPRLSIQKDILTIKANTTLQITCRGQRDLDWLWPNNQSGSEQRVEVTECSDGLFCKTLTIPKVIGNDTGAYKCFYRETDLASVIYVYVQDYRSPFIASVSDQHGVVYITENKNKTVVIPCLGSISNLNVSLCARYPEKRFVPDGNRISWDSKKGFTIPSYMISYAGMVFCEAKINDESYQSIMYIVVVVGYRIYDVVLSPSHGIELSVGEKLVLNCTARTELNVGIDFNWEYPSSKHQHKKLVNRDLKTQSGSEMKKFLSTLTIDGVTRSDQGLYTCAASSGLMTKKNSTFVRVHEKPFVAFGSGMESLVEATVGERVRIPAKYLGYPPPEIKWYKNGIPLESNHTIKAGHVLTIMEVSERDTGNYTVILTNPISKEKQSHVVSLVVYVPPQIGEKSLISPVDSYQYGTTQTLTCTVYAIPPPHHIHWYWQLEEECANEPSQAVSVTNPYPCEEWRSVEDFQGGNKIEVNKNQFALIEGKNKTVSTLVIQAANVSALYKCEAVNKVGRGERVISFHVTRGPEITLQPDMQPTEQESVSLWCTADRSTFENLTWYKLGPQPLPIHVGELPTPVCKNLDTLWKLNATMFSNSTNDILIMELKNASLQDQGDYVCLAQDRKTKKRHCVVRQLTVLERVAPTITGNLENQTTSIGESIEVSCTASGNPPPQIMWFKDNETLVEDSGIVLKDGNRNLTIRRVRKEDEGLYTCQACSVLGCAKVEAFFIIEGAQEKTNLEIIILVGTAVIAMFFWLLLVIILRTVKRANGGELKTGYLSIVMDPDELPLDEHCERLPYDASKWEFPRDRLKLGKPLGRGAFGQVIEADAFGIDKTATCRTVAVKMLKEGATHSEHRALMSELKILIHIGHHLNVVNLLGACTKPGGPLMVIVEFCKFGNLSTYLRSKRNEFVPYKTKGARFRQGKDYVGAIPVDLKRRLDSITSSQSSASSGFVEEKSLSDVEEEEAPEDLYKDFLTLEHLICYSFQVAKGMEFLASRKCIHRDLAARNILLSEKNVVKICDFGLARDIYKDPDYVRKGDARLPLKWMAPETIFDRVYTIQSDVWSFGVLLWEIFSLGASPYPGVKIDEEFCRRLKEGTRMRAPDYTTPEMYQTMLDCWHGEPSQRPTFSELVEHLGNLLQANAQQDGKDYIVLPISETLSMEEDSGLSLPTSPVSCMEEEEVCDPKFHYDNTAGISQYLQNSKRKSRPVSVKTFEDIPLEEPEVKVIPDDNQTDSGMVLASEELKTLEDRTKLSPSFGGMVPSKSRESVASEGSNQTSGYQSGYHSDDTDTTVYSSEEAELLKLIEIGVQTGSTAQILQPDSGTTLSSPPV
# Flt-1 receptor (VEGFR1) = Flt-1 receptor (VEGFR1) (Homo sapiens, UniProt P17948); test: Binding and competition assays using ELISA
# Sequence of Flt-1 receptor (VEGFR1) (P17948 27-1338): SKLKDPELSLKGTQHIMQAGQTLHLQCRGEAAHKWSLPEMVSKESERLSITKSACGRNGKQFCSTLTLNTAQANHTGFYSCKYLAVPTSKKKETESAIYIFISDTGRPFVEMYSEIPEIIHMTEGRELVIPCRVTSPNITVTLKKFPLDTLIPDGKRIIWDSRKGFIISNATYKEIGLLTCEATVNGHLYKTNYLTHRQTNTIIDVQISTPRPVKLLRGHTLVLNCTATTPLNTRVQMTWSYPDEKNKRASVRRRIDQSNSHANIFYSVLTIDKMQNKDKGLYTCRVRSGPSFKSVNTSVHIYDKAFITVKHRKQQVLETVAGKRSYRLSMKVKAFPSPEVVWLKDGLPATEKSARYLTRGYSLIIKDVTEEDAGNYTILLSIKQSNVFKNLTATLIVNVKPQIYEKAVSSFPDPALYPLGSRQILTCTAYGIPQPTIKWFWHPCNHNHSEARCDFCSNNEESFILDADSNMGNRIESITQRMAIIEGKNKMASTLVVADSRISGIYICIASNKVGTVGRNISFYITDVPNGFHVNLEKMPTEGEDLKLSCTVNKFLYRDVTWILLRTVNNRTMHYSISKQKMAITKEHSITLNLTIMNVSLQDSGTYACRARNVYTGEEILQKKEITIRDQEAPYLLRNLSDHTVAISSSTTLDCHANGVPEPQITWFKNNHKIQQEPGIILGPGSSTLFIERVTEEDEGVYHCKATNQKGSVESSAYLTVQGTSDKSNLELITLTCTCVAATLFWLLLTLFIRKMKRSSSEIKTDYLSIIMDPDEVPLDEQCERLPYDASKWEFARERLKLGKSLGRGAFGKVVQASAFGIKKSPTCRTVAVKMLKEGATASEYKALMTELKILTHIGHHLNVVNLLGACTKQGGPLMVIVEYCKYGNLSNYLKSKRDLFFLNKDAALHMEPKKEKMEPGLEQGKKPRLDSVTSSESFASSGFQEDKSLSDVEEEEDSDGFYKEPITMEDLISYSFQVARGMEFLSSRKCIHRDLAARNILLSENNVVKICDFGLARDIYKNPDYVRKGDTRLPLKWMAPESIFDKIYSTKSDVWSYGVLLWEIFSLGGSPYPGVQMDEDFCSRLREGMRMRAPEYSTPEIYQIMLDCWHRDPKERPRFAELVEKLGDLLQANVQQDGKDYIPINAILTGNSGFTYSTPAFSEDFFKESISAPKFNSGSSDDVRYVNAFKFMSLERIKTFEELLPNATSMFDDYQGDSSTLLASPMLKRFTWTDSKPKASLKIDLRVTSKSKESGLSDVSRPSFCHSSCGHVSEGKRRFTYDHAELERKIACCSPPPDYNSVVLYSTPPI
# [3] = RT-PCR detection of CPMV RNA in tissues of mice inoculated i.v.; conditions: for CPMV RNA detected in bone marrow, mice positive/examined / CPMV RNA detected in brain, mice positive/examined / CPMV RNA detected in duodenum, mice positive/examined / CPMV RNA detected in ileum, mice positive/examined / CPMV RNA detected in jejunum, mice positive/examined / CPMV RNA detected in kidney, mice positive/examined / CPMV RNA detected in liver, mice positive/examined / CPMV RNA detected in lung, mice positive/examined / CPMV RNA detected in spleen, mice positive/examined / CPMV RNA detected in stomach, mice positive/examined: i.v.
# [4] = 1 g infected leaves, day 1 post ingestion
substance,measurement,setting,value
cowpea mosaic virus [CPMV],symptoms on cowpea leaves from virus recovered from mouse liver and spleen,cowpea plants [1]; PEG-precipitated tissue homogenates,No symptoms were observed
same,inoculated amount required for a PCR signal,cowpea plants [1]; control titration on cowpea,1 ng
same,inoculated amount required to observe symptoms,cowpea plants [1]; control titration on cowpea,10 ng
same,"lesions on primary leaves, plasma-incubated virus",cowpea plants [2]; 30 minutes at 37° C.,6 lesions per cm
same,"lesions on primary leaves, serum-incubated virus",cowpea plants [2]; 30 minutes at 37° C.,less than 1 lesion per cm^2
same,"lesions on primary leaves, control infection (PBS)",cowpea plants [2],too many lesions to count
same,survival of lethal i.c. LCMV challenge,LCMV,one of six
same,"mice positive for CPMV RNA in kidney, duodenum, jejunum and brain",[4],1 out of 3
same,"mice positive for CPMV RNA in spleen, liver, lungs, stomach, ileum and bone marrow",[4],2 out of 3
same,persistence of CPMV RNA in tissues,ingestion of infected leaves,did not persist in tissues past the first day
same,binding to KDR receptor in ELISA,KDR receptor (VEGFR2),did not show any detectable binding
same,binding to Flt-1 receptor in ELISA,Flt-1 receptor (VEGFR1),did not show any detectable binding
same,CPMV RNA in any tissues examined,[3]; day 5 or day 7 post-inoculation,not detected
same,"CPMV RNA detected in bone marrow, mice positive/examined","[3]; D1, Non-perfused",3/3
same,"CPMV RNA detected in brain, mice positive/examined","[3]; D1, Non-perfused",3/3
same,"CPMV RNA detected in duodenum, mice positive/examined","[3]; D1, Non-perfused",3/3
same,"CPMV RNA detected in ileum, mice positive/examined","[3]; D1, Non-perfused",3/3
same,"CPMV RNA detected in jejunum, mice positive/examined","[3]; D1, Non-perfused",3/3
same,"CPMV RNA detected in kidney, mice positive/examined","[3]; D1, Non-perfused",3/3
same,"CPMV RNA detected in liver, mice positive/examined","[3]; D1, Non-perfused",2/3
same,"CPMV RNA detected in lung, mice positive/examined","[3]; D1, Non-perfused",3/3
same,"CPMV RNA detected in spleen, mice positive/examined","[3]; D1, Non-perfused",3/3
same,"CPMV RNA detected in stomach, mice positive/examined","[3]; D1, Non-perfused",3/3
same,"CPMV RNA detected in bone marrow, mice positive/examined","[3]; D1, Perfused",3/3
same,"CPMV RNA detected in brain, mice positive/examined","[3]; D1, Perfused",3/3
same,"CPMV RNA detected in duodenum, mice positive/examined","[3]; D1, Perfused",2/3
same,"CPMV RNA detected in ileum, mice positive/examined","[3]; D1, Perfused",3/3
same,"CPMV RNA detected in jejunum, mice positive/examined","[3]; D1, Perfused",3/3
same,"CPMV RNA detected in kidney, mice positive/examined","[3]; D1, Perfused",3/3
same,"CPMV RNA detected in liver, mice positive/examined","[3]; D1, Perfused",3/3
same,"CPMV RNA detected in lung, mice positive/examined","[3]; D1, Perfused",3/3
same,"CPMV RNA detected in spleen, mice positive/examined","[3]; D1, Perfused",3/3
same,"CPMV RNA detected in stomach, mice positive/examined","[3]; D1, Perfused",3/3
same,"CPMV RNA detected in bone marrow, mice positive/examined","[3]; D2, Non-perfused",3/3
same,"CPMV RNA detected in brain, mice positive/examined","[3]; D2, Non-perfused",3/3
same,"CPMV RNA detected in duodenum, mice positive/examined","[3]; D2, Non-perfused",3/3
same,"CPMV RNA detected in ileum, mice positive/examined","[3]; D2, Non-perfused",3/3
same,"CPMV RNA detected in jejunum, mice positive/examined","[3]; D2, Non-perfused",3/3
same,"CPMV RNA detected in kidney, mice positive/examined","[3]; D2, Non-perfused",3/3
same,"CPMV RNA detected in liver, mice positive/examined","[3]; D2, Non-perfused",3/3
same,"CPMV RNA detected in lung, mice positive/examined","[3]; D2, Non-perfused",3/3
same,"CPMV RNA detected in spleen, mice positive/examined","[3]; D2, Non-perfused",3/3
same,"CPMV RNA detected in stomach, mice positive/examined","[3]; D2, Non-perfused",3/3
same,"CPMV RNA detected in bone marrow, mice positive/examined","[3]; D2, Perfused",3/3
same,"CPMV RNA detected in brain, mice positive/examined","[3]; D2, Perfused",2/3
same,"CPMV RNA detected in duodenum, mice positive/examined","[3]; D2, Perfused",3/3
same,"CPMV RNA detected in ileum, mice positive/examined","[3]; D2, Perfused",3/3
same,"CPMV RNA detected in jejunum, mice positive/examined","[3]; D2, Perfused",3/3
same,"CPMV RNA detected in kidney, mice positive/examined","[3]; D2, Perfused",3/3
same,"CPMV RNA detected in liver, mice positive/examined","[3]; D2, Perfused",3/3
same,"CPMV RNA detected in lung, mice positive/examined","[3]; D2, Perfused",3/3
same,"CPMV RNA detected in spleen, mice positive/examined","[3]; D2, Perfused",3/3
same,"CPMV RNA detected in stomach, mice positive/examined","[3]; D2, Perfused",3/3
same,"CPMV RNA detected in bone marrow, mice positive/examined","[3]; D3, Non-perfused",3/3
same,"CPMV RNA detected in brain, mice positive/examined","[3]; D3, Non-perfused",3/3
same,"CPMV RNA detected in duodenum, mice positive/examined","[3]; D3, Non-perfused",2/3
same,"CPMV RNA detected in ileum, mice positive/examined","[3]; D3, Non-perfused",3/3
same,"CPMV RNA detected in jejunum, mice positive/examined","[3]; D3, Non-perfused",3/3
same,"CPMV RNA detected in kidney, mice positive/examined","[3]; D3, Non-perfused",3/3
same,"CPMV RNA detected in liver, mice positive/examined","[3]; D3, Non-perfused",3/3
same,"CPMV RNA detected in lung, mice positive/examined","[3]; D3, Non-perfused",3/3
same,"CPMV RNA detected in spleen, mice positive/examined","[3]; D3, Non-perfused",3/3
same,"CPMV RNA detected in stomach, mice positive/examined","[3]; D3, Non-perfused",1/3
same,"CPMV RNA detected in bone marrow, mice positive/examined","[3]; D3, Perfused",3/3
same,"CPMV RNA detected in brain, mice positive/examined","[3]; D3, Perfused",3/3
same,"CPMV RNA detected in duodenum, mice positive/examined","[3]; D3, Perfused",3/3
same,"CPMV RNA detected in ileum, mice positive/examined","[3]; D3, Perfused",3/3
same,"CPMV RNA detected in jejunum, mice positive/examined","[3]; D3, Perfused",3/3
same,"CPMV RNA detected in kidney, mice positive/examined","[3]; D3, Perfused",3/3
same,"CPMV RNA detected in liver, mice positive/examined","[3]; D3, Perfused",3/3
same,"CPMV RNA detected in lung, mice positive/examined","[3]; D3, Perfused",3/3
same,"CPMV RNA detected in spleen, mice positive/examined","[3]; D3, Perfused",3/3
same,"CPMV RNA detected in stomach, mice positive/examined","[3]; D3, Perfused",3/3

# Reference: patent US20060216238A1, “Compositions and methods for targeting or imaging a tissue in a vertebrate subject” (priority 2005, published 2006)
